Test results: patent US8119633B2, “Substituted sulfonamide compounds” (Gruenenthal GmbH, priority 2007, dated 2012)

Columns and labels:
[1] = target: T1, human bradykinin receptor 1 (B1R) (Homo sapiens, UniProt P46663); experiment: Functional study on the bradykinin receptor 1 (B1R), human: FLIPR Ca2+ influx assay; format: cell-based; details: test substance 10 μM, CHO K1 cells transfected with human B1R, Lys-Des-Arg9-bradykinin at EC80, Ca2+ influx (Fluo-4, FLIPR); for inhibition at 10 µM: read-out: B1R antagonism, human [10 μM] % inhibition
T1 construct: expressed in transfected cells; host or cells: CHO K1 cells
T1 sequence (P46663 1-353): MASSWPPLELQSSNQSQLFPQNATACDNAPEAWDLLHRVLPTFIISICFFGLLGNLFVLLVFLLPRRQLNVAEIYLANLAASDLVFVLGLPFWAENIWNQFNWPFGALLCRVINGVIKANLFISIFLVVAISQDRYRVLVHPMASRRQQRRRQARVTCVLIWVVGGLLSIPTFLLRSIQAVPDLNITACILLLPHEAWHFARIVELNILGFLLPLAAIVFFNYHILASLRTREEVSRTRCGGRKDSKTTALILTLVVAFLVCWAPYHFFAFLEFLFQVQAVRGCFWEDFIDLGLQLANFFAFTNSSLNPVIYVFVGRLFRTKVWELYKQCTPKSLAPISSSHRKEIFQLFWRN
Summary of the method: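 CHO K1 cells stably expressing human B1R were loaded with Fluo-4, and Ca2+ fluorescence was read on FLIPR (ex 488/em 540 nm). Compound was added first (10 μM for % activation against Lys-Des-Arg9-bradykinin ≥0.5 nM). After 10-20 min, Lys-Des-Arg9-bradykinin was added at EC80 for % inhibition; IC50 came from concentration series, n=2-3, N≥2.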

[2] = target: T2, human μ-opiate receptor (Homo sapiens, UniProt P35372); experiment: Affinity for the human μ-opiate receptor ([3H]-naloxone displacement, SPA); details: test substance 1 μmol/l, inhibition of specific [3H]-naloxone binding, CHO-K1 receptor membrane preparation; for inhibition at 1 µM: read-out: μ-Opioid receptor [1 μM] % inhibition
T2 construct: purchased PerkinElmer Life Sciences, Zaventem, Belgium RB-HOM; host or cells: CHO-K1 cells (membrane preparation)
Method: Studies of the Effectiveness of the Compounds According to the Invention Method for determining the affinity for the human μ-opiate receptor
The receptor affinity for the human μ-opiate receptor is determined in a homogeneous batch on microtitre plates. To this end, serial dilutions of the substances to be tested are incubated for 90 minutes at room temperature with a receptor membrane preparation (15-40 μg of protein/250 μl of incubation batch) of CHO-K1 cells, which express the human μ-opiate receptor (RB-HOM receptor membrane preparation from PerkinElmer Life Sciences, Zaventem, Belgium), in the presence of 1 nmol/l of the radioactive ligand [^3H]-naloxone (NET719, PerkinElmer Life Sciences, Zaventem, Belgium) and 1 mg of WGA-SPA beads (wheatgerm agglutinin SPA beads from Amersham/Pharmacia, Freiburg, Germany) in a total volume of 250 μl. The incubation buffer used is 50 mmol/l of Tris-HCl supplemented with 0.06 wt. % bovine serum albumin. In order to determine non-specific binding, 100 μmol/l of naloxone is additionally added. When the ninety-minute incubation time has ended, the microtitre plates are centrifuged off for 20 minutes at 1000 g and the radioactivity is measured in a β-counter (Microbeta-Trilux, PerkinElmer Wallac, Freiburg, Germany). The percentage displacement of the radioactive ligand from its binding to the human μ-opiate receptor at a concentration of the test substances of 1 μmol/l is determined and stated as the percentage inhibition of specific binding. On the basis of the percentage displacement by different concentrations of the test substances, IC50 inhibitory concentrations, which effect 50% displacement of the radioactive ligand, are calculated. Ki values for the test substances are obtained by conversion by means of the Cheng-Prusoff equation.

[3] = target: T3, bradykinin receptor 1 (B1R) of the rat (Rattus norvegicus, UniProt P97583); experiment: Functional study on the bradykinin receptor 1 (B1R), rat: FLIPR Ca2+ influx assay; format: cell-based; details: test substance 10 μM, CHO K1 cells transfected with rat B1R, Des-Arg9-bradykinin at EC80, Ca2+ influx (Fluo-4, FLIPR); for inhibition at 10 µM: read-out: B1R antagonism, rat [10 μM] % inhibition
T3 construct: expressed in transfected cells; host or cells: CHO K1 cells
T3 sequence (P97583 1-337): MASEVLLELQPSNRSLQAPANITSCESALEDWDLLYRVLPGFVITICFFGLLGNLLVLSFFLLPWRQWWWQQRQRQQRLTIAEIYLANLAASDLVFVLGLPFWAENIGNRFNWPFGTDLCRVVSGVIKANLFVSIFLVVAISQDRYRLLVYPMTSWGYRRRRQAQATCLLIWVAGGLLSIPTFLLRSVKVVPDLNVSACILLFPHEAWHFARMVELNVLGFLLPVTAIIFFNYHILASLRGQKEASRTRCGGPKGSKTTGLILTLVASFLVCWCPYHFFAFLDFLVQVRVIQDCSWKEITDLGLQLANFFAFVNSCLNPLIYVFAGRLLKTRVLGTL
Summary of the method: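 CHO K1 cells stably expressing rat B1R, Fluo-4-loaded, read on FLIPR (ex 488/em 540 nm, peak fluorescence). Test substances added first (agonism vs 10 μM Des-Arg9-bradykinin), then after 10-20 min Des-Arg9-bradykinin at EC80; % inhibition and IC50 from concentration series, n=2-3, N≥2.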

T2 sequence (P35372 whole entry): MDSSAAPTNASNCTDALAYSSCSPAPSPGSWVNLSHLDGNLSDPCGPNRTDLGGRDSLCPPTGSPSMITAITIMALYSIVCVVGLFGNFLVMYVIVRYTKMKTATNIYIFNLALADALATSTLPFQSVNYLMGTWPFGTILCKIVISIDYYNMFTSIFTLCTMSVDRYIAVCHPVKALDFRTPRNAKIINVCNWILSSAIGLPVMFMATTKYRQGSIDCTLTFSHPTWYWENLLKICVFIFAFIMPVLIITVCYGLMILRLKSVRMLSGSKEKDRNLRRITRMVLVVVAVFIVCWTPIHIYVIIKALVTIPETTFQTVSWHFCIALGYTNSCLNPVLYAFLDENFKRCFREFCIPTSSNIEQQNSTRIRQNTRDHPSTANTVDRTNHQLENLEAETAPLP

Compound | inhibition at 10 µM [1] [%] | inhibition at 1 µM [2] [%] | inhibition at 10 µM [3] [%] | B1R antagonism, human [10 μM] % inhibition [1] [%] | μ-Opioid receptor [1 μM] % inhibition [2] [%] | B1R antagonism, rat [10 μM] % inhibition [3] [%]
CN1CCN(C(c2ccccc2)C2CCC(NC(=O)CC3CCCCN3S(=O)(=O)c3ccc(Cl)c(Cl)c3)CC2)CC1 (stereo not drawn) [Example 88, 2-[1-(3,4-dichloro-benzenesulfonyl)-piperidin-2-yl]-N-{4-[(4-methyl-piperazin-1-yl)-phenyl-methyl]-cyclohexyl}-acetamide] | 101 | 58 | 61 | – | – | –
CN1CCN(C(c2ccccc2)C2CCC(NC(=O)CC3CCCN3S(=O)(=O)c3ccc(Cl)c(Cl)c3)CC2)CC1 (stereo not drawn) [Example 79, 2-[1-(3,4-dichloro-benzenesulfonyl)-pyrrolidin-2-yl]-N-{4-[(4-methyl-piperazin-1-yl)-phenyl-methyl]-cyclohexyl}-acetamide] | 96.8 | 47 | 33 | – | – | –
CN(CCCCC(=O)NC1CCC(C(c2ccccc2)N2CCCCC2)CC1)S(=O)(=O)c1c(Cl)cc(Cl)cc1Cl (stereo not drawn) [Example 6, N—(4-(Phenyl(piperidin-1-yl)methyl)cyclohexyl)-5-(2,4,6-trichloro-N-methylphenylsulfonamido)pentanamide] | 75.1 | 29 | 41 | – | – | –
1-(4-(1-(4-methylpiperazin-1-yl)-3-phenylpropyl)piperidin-1-yl)-2-(1-(3-(trifluoromethyl)phenylsulfonyl)piperidin-2-yl)ethanone [Example 112] | – | – | – | 90 | 28 | 61
CN1CCN(C(c2cccc(F)c2)C2CCN(C(=O)CC3CCCCN3S(=O)(=O)c3cccc(C(F)(F)F)c3)CC2)CC1 (stereo not drawn) [Example 115, 1-(4-((3-fluorophenyl)(4-methylpiperazin-1-yl)methyl)piperidin-1-yl)-2-(1-(3-(trifluoromethyl)phenylsulfonyl)piperidin-2-yl)ethanone] | 87 | 11 | 52 | – | – | –
O=C(CC1CCCCN1S(=O)(=O)c1ccc(Cl)c(Cl)c1)NCC1CCC(C(CCc2ccccc2)N2CCOCC2)CC1 (stereo not drawn) [Example 83, 2-[1-(3,4-dichloro-benzenesulfonyl)-piperidin-2-yl]-N-[4-(1-morpholin-4-yl-3-phenyl-propyl)-cyclohexylmethyl]-acetamide] | 37 | 22 | -3 | – | – | –
COc1cc(C)c(S(=O)(=O)N(C)CCCNC(=O)NC2CCC(C(c3ccccc3)N(C)C)CC2)c(C)c1C (stereo not drawn) [Example 1, N—(3-{3-[4-(Dimethylaminophenylmethyl)cyclohexyl]ureido}propyl)-4-methoxy-2,3,6,N-tetramethylbenzenesulfonamide] | 71.5 | 94 | 56 | – | – | –
O=C(CC1C(=O)NCCN1S(=O)(=O)c1ccc(Cl)cc1Cl)NCC1CCC(C(CCc2ccccc2)N2CCCC2)CC1 (stereo not drawn) [Example 57, 2-[1-(2,4-dichloro-benzenesulfonyl)-3-oxo-piperazin-2-yl]-N-[4-(3-phenyl-1-pyrrolidin-1-yl-propyl)-cyclohexylmethyl]-acetamide] | 104 | 25 | 27 | – | – | –
O=C(CC1CCCN1S(=O)(=O)c1ccc(Cl)c(Cl)c1)N1CCC(C(Cc2ccccc2)N2CCOCC2)CC1 (stereo not drawn) [Example 81, 2-(1-(3,4-dichlorophenylsulfonyl)pyrrolidin-2-yl)-1-(4-(1-morpholino-2-phenylethyl)piperidin-1-yl)ethanone] | 65.3 | 16 | 56 | – | – | –
N-(3-(4-((4-fluorophenyl)(4-methylpiperazin-1-yl)methyl)piperidin-1-yl)-3-oxo-1-phenylpropyl)naphthalene-2-sulfonamide [Example 117] | – | – | – | – | 47 | –
O=C1NCCN(S(=O)(=O)c2ccc(Cl)cc2Cl)C1CC(=O)N1CCC(C(c2ccccc2)N2CCOCC2)CC1 (stereo not drawn) [Example 62, 4-(2,4-dichloro-benzenesulfonyl)-3-{2-[4-(morpholin-4-yl-phenyl-methyl)piperidin-1-yl]-2-oxo-ethyl}-piperazin-2-one] | – | 4 | 27 | – | – | –
